Results on six compounds are retold here after patent US8173157B2, “Pharmaceutical composition comprising phenylamidine derivative and method of using the pharmaceutical composition in combination with antifungal agent” (Toyama Chemical Co., Ltd., priority 2006, dated 2012).

Numbered stars: 1 amine (or outer) side, 2 acyl side, 3 side chain; on linkers, the order of the positions; unused ones are H or OH. Bridge positions count the residues as written; N and C are the ends. Square brackets hold non-standard residues; d marks the D form. Peptide text beside a SMILES is read from it. * marks the point of attachment. hTyr(3S-OH,4S-OH,3'-OSO3H) = N[C@H](C(=O)O)[C@H](O)[C@@H](O)c1ccc(O)c(OS(=O)(=O)O)c1; Orn(4R-OH,5R-OH) = O=C([C@H](C[C@@H](O)[C@@H](O)N[*:3])N[*:1])[*:2]; Pro(3S-OH,4S-Me) = C[C@H]1CN[C@H](C(=O)O)[C@H]1O; X1 = CCCCCOc1ccc(-c2cc(-c3ccc(C(=O)*)cc3)no2)cc1; Gln(3R-OH) = NC(=O)C[C@@H](O)[C@H](N)C(=O)O; Hyp = O=C(O)[C@@H]1C[C@@H](O)CN1

Data set [1] has as its system Candida albicans TIMM1623. Briefly: In vivo test: murine systemic infection caused by Candida albicans. Conditions: ICR mice, day 21 after infection, once daily, 7 times. Here is the method:
In vivo activity was evaluated in murine systemic infection caused by Candida albicans.
(§1) Mice (4-week old (at infection) male ICR mice, 5 mice per group) were intraperitoneally administered 200 mg/kg of cyclophosphamide 4 days before infection and 100 mg/kg on the following day after infection. Candida albicans TIMM1623, which were prepared from overnight culture on a Sabouraud Dextrose Agar plate at 35° C., were suspended in sterile physiological saline solution. After counting cell number of the suspension with a biological microscope, the suspension was diluted with sterile physiological saline solution to give the inoculum solution. Systemic infection was induced in mice by intravenous inoculation of 0.2 mL of the inoculum solution into the tail vein (2.6×10^4 CFU/mouse).
(§2) The test compound was dissolved in a small amount of 0.1 mol/L hydrochloric acid, and the solution was diluted with sterilized water to prepare predetermined concentrations.
Fluconazole (a commercial name: FLANOS intravenous drip solution 100 mg, made by Toyama Chemical Co., Ltd.) was diluted with sterilized water to prepare fluconazole solutions of predetermined concentrations.
Micafungin sodium (a commercial name: Funguard 50 mg for infusion, made by Astellas Pharma Inc.) was dissolved in sterile physiological saline solution to prepare micafungin solutions of predetermined concentrations.
Amphotericin B for injection (a commercial name: FUNGIZONE, made by Bristol pharmaceutical Ltd.) was dissolved in 5% glucose to prepare an amphotericin B solution of a predetermined concentration.
The test compound (0.25 and 0.5 mg/kg) and fluconazole (0.25 and 0.5 mg/kg) were orally administered. Micafungin (0.125 and 0.25 mg/kg) and amphotericin B (0.1 mg/kg) were subcutaneously administered. These administrations were conducted once 2 hours after the infection and then once daily for the following 6 days, totaling 7 times.
On one hand each of the agents was administered singly, on the other hand each of the agents was administered immediately after the test compound was administered.
The efficacy was evaluated on the basis of the survival rate on day 21 after infection.

Data set [2] concerns Aspergillus fumigatus IFM46895. The settings on record: general statement ("as usual"); cited from earlier work.
The subject of data set [3] is Aspergillus fumigatus IFM46895. As to the kind of experiment: In vivo test: murine systemic infection caused by Aspergillus fumigatus. Conditions: for Survival rate: ICR mice, day 21 after infection, once daily, 7 times. As for the experimental part: In vivo activity was evaluated in murine systemic infection caused by Aspergillus fumigatus.
Mice (4-week old (at infection) male ICR mice, 5 mice per group) were intraperitoneally administered 200 mg/kg of cyclophosphamide 4 days before infection and 100 mg/kg on the following day after infection. Conidia suspension of Aspergillus fumigatus IFM46895 was diluted with sterile physiological saline solution containing 0.05% Tween 80 (manufactured by Difco Laboratories) in sterile physiological saline solution to give the inoculum solution. Systemic infection was induced in mice by intravenous inoculation of 0.2 mL of the inoculum solution into the tail vein (1.6×10^5 CFU/mouse).
as §2
Flucytosine (made by Sigma Company) was suspended in 0.5% methyl cellulose liquid to prepare predetermined concentrations for administration.
Voriconazole (a commercial name: Vfend 200 mg for intravenous use, made by Pfizer Inc.) was diluted with sterilized water to prepare voriconazole solutions of predetermined concentrations for administration.
The test compound (1 and 3 mg/kg), flucytosine (50 and 250 mg/kg) and voriconazole (5 and 10 mg/kg) were orally administered. The administrations were conducted once 2 hours after the infection and then once daily for the following 6 days, totaling 7 times.
(§3) On one hand each of the agents was administered singly, on the other hand each of the agents was administered immediately after the test compound was administered. The efficacy was evaluated on the basis of the survival rate on day 21 after infection.

Data set [4] has as its system Cryptococcus neoformans ATCC90112. Briefly: In vivo test: murine systematic infection caused by Cryptococcus neoformans. The settings on record: ICR mice, day 21 after infection, once daily, 7 times. As for the experimental part:
In vivo activity was evaluated in murine systematic infection caused by Cryptococcus neoformans.
as §1, with “Cryptococcus neoformans ATCC90112 cells,” for “Candida albicans TIMM1623,”, “Systematic” for “Systemic”, “injection” for “inoculation”, “(8.5×10^4” for “(2.6×10^4”
The test compound was dissolved in a small amount of 0.1 mol/L hydrochloric acid, and the solution was diluted with sterilized water to prepare predetermined concentrations. […]
as §3

The nature of data set [5]: Toxicity on consecutive oral administration to mice. The data set is classed as in vivo. The settings on record: orally administered consecutively at 25 mg/kg for 2 weeks.

Consider `C[C@@H]1[C@H](O)[C@@H](C)/C=C/C=C/C=C/C=C/C=C/C=C/C=C/[C@H](O[C@@H]2O[C@H](C)[C@@H](O)[C@H](N)[C@@H]2O)C[C@@H]2O[C@](O)(C[C@@H](O)C[C@@H](O)[C@H](O)CC[C@@H](O)C[C@@H](O)CC(=O)O[C@H]1C)C[C@H](O)[C@H]2C(=O)O` [AMPH-B, amphotericin B], for which the Survival rate in data set [1] (AMPH-B 0.1 mg/kg subcutaneously) is reported as 20.
With `Nc1[nH]c(=O)ncc1F` [Example 5-FC, flucytosine], the “Effect against Aspergillus fumigatus” value in data set [2] is on record as “almost no effect”. The compound further returned a Survival rate in data set [3] (5-FC 250 mg/kg orally) of 0. In data set [3] (murine systemic infection, flucytosine 250 mg/kg administered singly), the Therapeutic effect entry is listed as “no therapeutic effect”.
As to `OC(Cn1cncn1)(Cn1cncn1)c1ccc(F)cc1F` [FLCZ, fluconazole], the Survival rate turned out to be 20 in data set [1] (FLCZ 0.25 mg/kg orally), 40 in data set [1] (FLCZ 0.5 mg/kg orally) and 20 in data set [4] (FLCZ 20 mg/kg orally).
For `CCCCCOc1ccc(-c2cc(-c3ccc(C(=O)N[C@H]4C[C@@H](O)[C@@H](O)NC(=O)[C@@H]5[C@@H](O)[C@@H](C)CN5C(=O)[C@H]([C@H](O)CC(N)=O)NC(=O)[C@H]([C@H](O)[C@@H](O)c5ccc(O)c(OS(=O)(=O)O)c5)NC(=O)[C@@H]5C[C@@H](O)CN5C(=O)[C@H]([C@@H](C)O)NC4=O)cc3)no2)cc1` [MCFG, micafungin] (X1-[Orn(4R-OH,5R-OH)]T[Hyp][hTyr(3S-OH,4S-OH,3'-OSO3H)][Gln(3R-OH)][Pro(3S-OH,4S-Me)]; lactam 1-C), the Survival rate in data set [1] (MCFG 0.125 mg/kg subcutaneously) is listed as 0; in data set [1] (MCFG 0.25 mg/kg subcutaneously) it was 40.
As for `CCCCOC(=O)N=C(N)c1ccc(OCCCC2CCN(CCCOc3ccc(C(N)=NC(=O)OCCCC)cc3)CC2)cc1` [Test compound, 4-{3-[4-(3-{4-[amino(butoxycarbonylimino)methyl]phenoxy}propyl)-1-piperidinyl]propoxy}-N′-(butoxycarbonyl)benzamidine], the Survival rate in data set [1] (test compound 0.5 mg/kg orally) was determined as 0; in data set [4] (test compound 1 mg/kg orally) it was 0; in data set [3] (test compound 1 mg/kg orally) it was 0; in data set [3] (test compound 3 mg/kg orally), 20. In addition, the Toxicity entry in data set [5] is “did not show toxicity at all”.
In turn, `C[C@@H](c1ncncc1F)[C@](O)(Cn1cncn1)c1ccc(F)cc1F` [VCZ, voriconazole] returned a Survival rate in data set [3] (VCZ 10 mg/kg orally) of 0.
